Data published in patent US20260001876A1, “Compounds and Their Use as PDE4 Activators” (Mironid Limited, priority 2022, published 2026).

Columns and labels:
[1] = tested on: m-IMCD3 cells expressing PDE4 long forms; assay: cAMP levels in assay media of PGE2-stimulated m-IMCD3 3D cell culture; format: cell-based; settings: Mus musculus, mIMCD3, compared to 100% for (DMSO + PGE2), read-out: cAMP level (% of PGE2-stimulated); for activity at 3 µM: 3 μM test compound; for activity at 10 µM: 10 μM test compound
Description: (§1) HEK 293 and MDCK cells (Public Health England, Cell Culture Collections) were maintained in Dulbecco's Modified Eagle's Medium (DMEM) supplemented with 10% (v/v) fetal bovine serum (FBS) (Seralab), 2 mM L-glutamine and 100 U/mL penicillin streptomycin cocktail (ThermoFisher); termed complete media. Clonal HEK 293 cell lines were maintained in complete media supplemented with 0.6 mg/ml G418 (Enzo Life Sciences). Mouse inner medullary collecting duct (m-IMCD3) cells [American Type Culture Collection (ATCC)] were maintained in media consisting of DMEM/Hams F-12 50/50 Mix (DMEM F12; Corning) supplemented with penicillin streptomycin cocktail (100 U/mL) and FBS (10% v/v) (DMEM F12-10% FBS).
Experiment 2: Reduction of CAMP Levels in m-IMCD3 Cell Culture Treated with PDE4 Long Form Activators
Activation of intracellular PDE4 long forms leads to a reduction of both intracellular CAMP and externalised cAMP (Omar et al., PNAS 116:13320-13329, 2019). This reduction may be measured in the cell culture media supernatant of 3D cystic cell cultures, such as in the m-IMCD3 cell cyst suppression assay described in Experiment 3.
Following the completion of the m-IMCD3 cell cyst suppression assay (Experiment 3), the CAMP levels in the assay media from individual or pooled assay wells was measured using a CAMP ELISA kit (Enzo Life Sciences) or a LANCE Ultra CAMP kit (PerkinElmer) according to the manufacturer's instructions.
Treatment with PDE4 long form activators reduced CAMP levels in PGE2-stimulated m-IMCD3 cell culture.

m-IMCD3 cells = assay: Inhibition of PGE2-stimulated in vitro cyst formation in m-IMCD3 cells (3D culture); format: cell-based; settings: Mus musculus, mIMCD3, 144 h, mean cyst area, 100% for (DMSO + PGE2) and 0% for DMSO control, 6 days of culture; for activity at 3 µM: read-out: % Cyst area* after incubation with 3 μM test compound; for activity at 10 µM: read-out: % Cyst area* after incubation with 10 μM test compound
Description: as §1
Experiment 3: Inhibition of In Vitro Cyst Formation in m-IMCD3 Cells Treated with PDE4 Long Form Activators
The mouse Inner Medullary Collecting Duct cell line (m-IMCD3) spontaneously forms cystic spheroids in 3D culture with a Type 1 collagen/Matrigel extracellular matrix. This process can be stimulated with agents which raise intracellular cAMP and is used as an in vitro model for the formation of cystic structures in the kidneys of patients with ADPKD.
Rat Collagen I (Fisher Scientific) is prepared on ice by neutralising with 1M NaOH and diluting with a 2× volume of DMEM/F12+10% FBS. This is mixed 1:1.1 with ice cold Matrigel (Corning) for coating plates (coating mix), and 1:0.93 with Matrigel for cell plating (plating mix).
The assay is conducted in the wells of a 96-well plate culture dish using a total volume of 130 μL of collagen/Matrigel/DMEM F12-10% FBS suspension in growth media for each matrix plug per individual well. Initially, 30 μL of collagen/Matrigel/DMEM F12-10% FBS (coating mix) is added into the well of a 96 well plate and the collagen is set to a gel by incubating at 37° C. for at least 15 minutes. A second layer of 100 μL collagen/Matrigel suspension (plating mix) containing m-IMCD3 cells (2.75×10^6 m-IMCD3 cells per 96-well plate) is layered over the coating mix and the collagen/Matrigel/cell mix again set to a gel by incubating at 37° C. Cell cultures are maintained at 37° C. in an atmosphere of 5% CO2, 95% air.
Between 18 and 24 h after plating, test compound(s) as DMSO stock solutions [0.1% (v/v) final DMSO concentration] and PGE2 (100 nM final concentration) in DMEM F12-10% FBS are added in quadruplicate wells per condition. Media, together with the test compound and PGE2 are replenished after 2 or 3 days. After 6 days of culture z stack images of the wells are captured using the Nikon Eclipse Ti2-E microscope. Nikon General Analysis software is used to measure the following parameters in each well: the mean cyst area, the number of cysts, and the total cyst area.
PDE4 long form activators inhibited in vitro cyst formation in m-IMCD3 cells. Data are shown in Table 4 as mean cyst area (%), compared to 100% for (DMSO+PGE2) and 0% for DMSO control.

O=S(=O)(Cc1ccc(F)cc1)N1CCc2nc(N3CCNCC3)ccc2C1 [Example 160, 6-((4-fluorobenzyl)sulfonyl)-2-(piperazin-1-yl)-5,6,7,8-tetrahydro-1,6-naphthyridine]
activity at 3 µM [1]: 35% | activity at 3 µM (m-IMCD3 cells): -4%

O=C(CC1CCCC1)N1CCc2nc(C3CCN(CCO)CC3)ccc2C1 [Example 115, 2-cyclopentyl-1-(2-(1-(2-hydroxyethyl)piperidin-4-yl)-7,8-dihydro-1,6-naphthyridin-6(5H)-yl)ethan-1-one]
activity at 3 µM [1]: 32% | activity at 10 µM (m-IMCD3 cells): -3%

O=C(CC1CCCC1)N1CCc2nc(N3C[C@H]4C[C@@H]3CN4)ccc2C1 [Example 156, 1-(2-((1R,4R)-2,5-diazabicyclo[2.2.1]heptan-2-yl)-7,8-dihydro-1,6-naphthyridin-6(5H)-yl)-2-cyclopentylethan-1-one]
activity at 3 µM [1]: 49% | activity at 3 µM (m-IMCD3 cells): 4%

O=C(CC1CCCC1)N1CCc2nc(N3C4CCCC3CNC4)ccc2C1 [Example 151, 1-(2-(3,9-diazabicyclo[3.3.1]nonan-9-yl)-7,8-dihydro-1,6-naphthyridin-6(5H)-yl)-2-cyclopentylethan-1-one]
activity at 3 µM [1]: 51% | activity at 3 µM (m-IMCD3 cells): -8%

O=C(CC1CCCC1)N1CCc2nc(N3CCN4CCC[C@@H]4C3)ccc2C1 [Example 112, (R)-2-cyclopentyl-1-(2-(hexahydropyrrolo[1,2-a]pyrazin-2 (1H)-yl)-7,8-dihydro-1,6-naphthyridin-6(5H)-yl)ethan-1-one]
activity at 3 µM [1]: 54% | activity at 10 µM (m-IMCD3 cells): -6%

O=C(N[C@H]1CCOc2ccccc21)N1CCc2nc(N3C4CCC3CNC4)ccc2C1 [Example 166, 2-(3,8-diazabicyclo[3.2.1]octan-8-yl)-N—((S)-chroman-4-yl)-7,8-dihydro-1,6-naphthyridine-6(5H)-carboxamide]
activity at 3 µM [1]: 35% | activity at 3 µM (m-IMCD3 cells): 3%

Cc1ccccc1C(=O)N1CCc2nc(N3C4CCC3CNC4)ccc2C1 [Example 122, (2-(3,8-diazabicyclo[3.2.1]octan-8-yl)-7,8-dihydro-1,6-naphthyridin-6(5H)-yl)(o-tolyl)methanone]
activity at 3 µM [1]: 66% | activity at 3 µM (m-IMCD3 cells): -1%

O=C(CC1CCC(F)(F)CC1)N1CCc2nc(N3C4CCC3CNC4)ccc2C1 [Example 40, 1-(2-(3,8-diazabicyclo[3.2.1]octan-8-yl)-7,8-dihydro-1,6-naphthyridin-6(5H)-yl)-2-(4,4-difluorocyclohexyl)ethan-1-one]
activity at 10 µM [1]: 43% | activity at 10 µM (m-IMCD3 cells): 0%

O=C(CC1CCCC1)N1CCc2nc(N3C[C@@H]4C[C@H]3CN4)ccc2C1 [Example 155, 1-(2-((1S,4S)-2,5-diazabicyclo[2.2.1]heptan-2-yl)-7,8-dihydro-1,6-naphthyridin-6(5H)-yl)-2-cyclopentylethan-1-one]
activity at 3 µM [1]: 63%

O=C(CC1CCC(F)(F)CC1)N1CCc2nc(N3CCNCC3)ccc2C1 [Example 111, 2-(4,4-difluorocyclohexyl)-1-(2-(piperazin-1-yl)-7,8-dihydro-1,6-naphthyridin-6(5H)-yl)ethan-1-one]
activity at 10 µM [1]: 38% | activity at 10 µM (m-IMCD3 cells): -3%

O=S(=O)(Cc1ccc(F)cc1)N1CCc2nc(N3C4CCC3CNC4)ccc2C1 [Example 158, 2-(3,8-diazabicyclo[3.2.1]octan-8-yl)-6-((4-fluorobenzyl)sulfonyl)-5,6,7,8-tetrahydro-1,6-naphthyridine]
activity at 3 µM [1]: 46% | activity at 3 µM (m-IMCD3 cells): 5%

O=S(=O)(Cc1ccccc1)N1CCc2nc(N3C4CCC3CNC4)ccc2C1 [Example 162, 6-(benzylsulfonyl)-2-(3,8-diazabicyclo[3.2.1]octan-8-yl)-5,6,7,8-tetrahydro-1,6-naphthyridine]
activity at 3 µM [1]: 38% | activity at 3 µM (m-IMCD3 cells): -3%

CC1(CC(=O)N2Cc3ccc(N4C5CCC4CNC5)nc3C2)CCCC1 [Example 129, 1-(2-(3,8-diazabicyclo[3.2.1]octan-8-yl)-5,7-dihydro-6H-pyrrolo[3,4-b]pyridin-6-yl)-2-(1-methylcyclopentyl)ethan-1-one]
activity at 3 µM [1]: 44% | activity at 10 µM (m-IMCD3 cells): 2%

O=C(Cc1ccccc1)N1CCc2nc(N3CCNCC3)ncc2C1 [Example 134, 2-phenyl-1-(2-(piperazin-1-yl)-7,8-dihydropyrido[4,3-d]pyrimidin-6(5H)-yl)ethan-1-one]
activity at 3 µM [1]: 55% | activity at 3 µM (m-IMCD3 cells): 7%

CC(C)(C)CC(=O)N1CCc2nc(N3C4CCC3CNC4)ccc2C1 [Example 42, 1-(2-(3,8-diazabicyclo[3.2.1]octan-8-yl)-7,8-dihydro-1,6-naphthyridin-6(5H)-yl)-3,3-dimethylbutan-1-one]
activity at 3 µM [1]: 28% | activity at 10 µM (m-IMCD3 cells): 0%

O=C(CC1CCCC1)N1CCc2nc(N3CC4CCCC(C3)N4)ccc2C1 [Example 152, 1-(2-(3,9-diazabicyclo[3.3.1]nonan-3-yl)-7,8-dihydro-1,6-naphthyridin-6(5H)-yl)-2-cyclopentylethan-1-one]
activity at 3 µM [1]: 41% | activity at 3 µM (m-IMCD3 cells): -6%

CCN1CCN(c2ccc3c(n2)CCN(C(=O)CC(C)(C)C)C3)CC1 [Example 150, 1-(2-(4-ethylpiperazin-1-yl)-7,8-dihydro-1,6-naphthyridin-6(5H)-yl)-3,3-dimethylbutan-1-one]
activity at 3 µM [1]: 49% | activity at 3 µM (m-IMCD3 cells): -1%

O=C(c1ccc(F)cc1)N1CCc2nc(N3CCNCC3)ncc2C1 [Example 147, (4-fluorophenyl)(2-(piperazin-1-yl)-7,8-dihydropyrido[4,3-d]pyrimidin-6(5H)-yl)methanone]
activity at 3 µM [1]: 40% | activity at 3 µM (m-IMCD3 cells): 4%

O=C(CC1CCCC1)N1CCc2nc(N3CCN4CCC[C@H]4C3)ccc2C1 [Example 113, (S)-2-cyclopentyl-1-(2-(hexahydropyrrolo[1,2-a]pyrazin-2 (1H)-yl)-7,8-dihydro-1,6-naphthyridin-6(5H)-yl)ethan-1-one]
activity at 3 µM [1]: 63% | activity at 10 µM (m-IMCD3 cells): -4%

CN(C(=O)N1CCc2nc(N3C4CCC3CNC4)ccc2C1)C1CCCC1 [Example 63, 2-(3,8-diazabicyclo[3.2.1]octan-8-yl)-N-cyclopentyl-N-methyl-7,8-dihydro-1,6-naphthyridine-6(5H)-carboxamide]
activity at 10 µM (m-IMCD3 cells): 2%

O=C(Cc1ccc(F)cc1)N1CCc2nc(N3CCNCC3)ccc2C1 [Example 176, 2-(4-fluorophenyl)-1-(2-(piperazin-1-yl)-7,8-dihydro-1,6-naphthyridin-6(5H)-yl)ethan-1-one]
activity at 3 µM (m-IMCD3 cells): -2%

O=C(N1CCCC1)N1Cc2ccc(N3C4CCC3CNC4)nc2C1 [Example 95, (2-(3,8-diazabicyclo[3.2.1]octan-8-yl)-5,7-dihydro-6H-pyrrolo[3,4-b]pyridin-6-yl)(pyrrolidin-1-yl)methanone]
activity at 10 µM (m-IMCD3 cells): -2%

O=C(CC1CCCC1)N1CCc2nc(N3CCN[C@H](CO)C3)ccc2C1 (single isomer, unassigned) [Example 132]
activity at 10 µM (m-IMCD3 cells): -4%

CCN1CCN(c2ccc3c(n2)CCN(C(=O)N[C@H]2CCOc4ccccc42)C3)CC1 [Example 169, (S)—N-(chroman-4-yl)-2-(4-ethylpiperazin-1-yl)-7,8-dihydro-1,6-naphthyridine-6(5H)-carboxamide]
activity at 3 µM (m-IMCD3 cells): -4%
